Data published in ChEMBL document CHEMBL1201862, “PubChem BioAssay data set” (2004).
One block for each compound: values may come before it. Activity calls are given as the source filed them.

Assays:
[1] = Luminescence Cell-Based Dose Retest to Confirm Inhibitors of Cancer Stem Cells. [Related pubchem assays (depositor defined):AID2717, AID2721]; format: functional; conditions: Homo sapiens
[2] = cytotoxicity in HMLE control line with eGFP shRNA, dose response, counter-screen for HMLE_sh_ECad selective toxicity project, cell-based, HMLE_sh_eGFP, luminescence (AID 463074); format: functional, Homo sapiens;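 also: HMLE human mammary epithelial cells expressing control shRNA against eGFP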
[3] = test system: BJ; experiment: cytotoxicity toward BJ-TERT fibroblasts, dose response, cell-based, RAS-independent, luminescence (AID 1933); format: functional; conditions: Homo sapiens
[4] = cells; format: functional, cell-based
[5] = test system: BJ; experiment: cells; format: functional, cell-based; conditions: Homo sapiens
[6] = cells; format: functional, cell-based; remark: listed apart in the source
[7] = test system: BJ; experiment: cytotoxicity toward BJ-TERT-LT-ST fibroblasts, dose response, cell-based, RAS-independent, luminescence (AID 1935); format: functional; conditions: Homo sapiens;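 also: BJ fibroblasts immortalized with TERT plus LT and ST oncogenes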
[8] = cytotoxicity toward DRD oncogenic fibroblasts, dose response, cell-based, non-viral oncogenic, luminescence (AID 1934); format: functional; conditions: Homo sapiens
[9] = biological target: Heat shock protein HSP 90-alpha (Homo sapiens, UniProt P07900); format: functional, organism-based
[10] = test system: HEK293; experiment: cytotoxicity in HEK293T NF-kB-Luc cells, SAR follow-up, cytotoxicity control for NF-kB activator project, cell-based, resazurin fluorescence (AID 493251); format: functional; conditions: Homo sapiens
[11] = test system: Jurkat; experiment: SAR Analysis of small molecule inhibitors of T-cell specific antigen receptor-induced NF-kB activation in a Jurkat cell line using a luminescence assay - Set 2. [Related pubchem assays (depositor defined):AID435003, AID435012, AID465]; format: functional, cell-based; conditions: Homo sapiens
[12] = test system: BJ; experiment: cytotoxicity toward Ras-transformed BJeLR fibroblasts, dose response, cell-based, alamar blue fluorescence, cherrypicked samples (AID 2631); format: functional; conditions: Homo sapiens;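 also: confirmatory dose-response assay in RAS-dependent BJ fibroblasts engineered with TERT, LT and ST, with cytotoxicity read by fluorescence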
[13] = test system: HEK293; experiment: SAR Analysis of small molecule inhibitors of T-cell specific antigen receptor-induced NF-kB activation in a HEK-293T cell line using a luminescence assay - Set 2. [Related pubchem assays (depositor defined):AID435003, AID435012, AID489026]; format: functional, cell-based; conditions: Homo sapiens
[14] = Shn3 3'UTR reporter inhibitors, dose response, cell-based, Clone20 osteoblasts, firefly luciferase, cherry-picked (AID 624132); format: functional;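 also: firefly luciferase luminescence from reporter carrying the Shn3 3'UTR in osteoblasts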
[15] = HepG2 cell cytotoxicity, dose response, cytotoxicity control for Shn3 inhibitor project, CellTiter-Glo, cherry-picked (AID 624134); format: functional, cell-based
[16] = control 3'UTR Renilla luciferase suppression, dose response, counter-screen for Shn3 inhibitor project, cell-based, Clone20-Shn3RL, cherry-picked (AID 624133); format: functional
[17] = test system: HEK293; experiment: inhibitors of LMP1-driven NF-kB reporter, dose response, cell-based, HEK293, luciferase, cherry-pick (AID 588343); format: functional; conditions: Homo sapiens
[18] = biological target: Latent membrane protein 1 (Human herpesvirus 4 (strain B95-8), UniProt P03230); experiment: TES1-eGFP NF-kB reporter inhibition versus Tet-On dsRED, dose response, selectivity assay for LMP1 NF-kB inhibitor project, imaging, HEK293T, dual-color eGFP/dsRED, cherry-picks (AID 588398); format: functional, cell-based
Latent membrane protein 1, sequence (P03230 whole entry): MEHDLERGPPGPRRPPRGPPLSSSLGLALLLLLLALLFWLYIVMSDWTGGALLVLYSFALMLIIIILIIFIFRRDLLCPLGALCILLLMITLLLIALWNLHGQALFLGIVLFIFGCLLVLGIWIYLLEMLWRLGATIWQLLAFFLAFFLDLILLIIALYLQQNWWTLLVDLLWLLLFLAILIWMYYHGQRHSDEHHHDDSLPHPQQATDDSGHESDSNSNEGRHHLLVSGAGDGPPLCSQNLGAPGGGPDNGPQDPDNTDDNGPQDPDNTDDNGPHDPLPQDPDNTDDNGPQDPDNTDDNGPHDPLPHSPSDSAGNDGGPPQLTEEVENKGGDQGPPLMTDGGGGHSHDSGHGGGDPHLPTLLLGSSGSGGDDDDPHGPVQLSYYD

[19] = biological target: FAD-linked sulfhydryl oxidase ALR (Homo sapiens, UniProt P55789); experiment: inhibitors of human ALR sulfhydryl oxidase, dose response, biochemical, H2O2 detection, luminescence, cherry-pick (AID 493248)
FAD-linked sulfhydryl oxidase ALR, sequence (P55789 whole entry): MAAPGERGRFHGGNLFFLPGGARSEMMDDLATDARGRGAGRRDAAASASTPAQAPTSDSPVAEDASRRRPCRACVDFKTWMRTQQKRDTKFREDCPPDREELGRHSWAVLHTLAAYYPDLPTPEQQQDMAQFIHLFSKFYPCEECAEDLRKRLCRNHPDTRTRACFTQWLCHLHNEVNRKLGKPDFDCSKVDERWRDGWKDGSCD

[20] = biological target: T1, Interleukin-8 (Homo sapiens, UniProt P10145); experiment: Dose Response confirmation of uHTS small molecule hits for cystic fibrosis induced NFkb Inhibitors in a TNFa-induced IL8 counterscreen.; format: functional; conditions: read-out: IC50_Mean
T1 sequence (P10145 whole entry): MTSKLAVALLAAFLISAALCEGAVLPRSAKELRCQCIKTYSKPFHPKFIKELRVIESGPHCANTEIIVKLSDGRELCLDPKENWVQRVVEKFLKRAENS

[21] = biological target: T1, Interleukin-8; experiment: Dose Response confirmation of uHTS small molecule hits for cystic fibrosis induced NFkb Inhibitors in a PAF-induced IL8 counterscreen.; format: functional; conditions: read-out: IC50_Mean
[22] = inhibitors of intracellular T. cruzi replication, confirmation, NIH3T3 host cells, beta-gal luminescence (AID 2044); format: functional, cell-based;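 also: intracellular parasites grown in NIH/3T3 mouse fibroblasts as host cells; luminescent beta-galactosidase reporter signal from transgenic T. cruzi replicating inside host cells; inhibitors lower the luminescence signal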
[23] = cytotoxicity toward NIH3T3 fibroblasts, dose response, counter-screen, cell-based, ATP luminescence, mouse fibroblasts (AID 2010); format: functional;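 also: cells exposed to compound for about 90 hours before reading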
[24] = biological target: DNA repair and recombination protein RAD54-like (Homo sapiens, UniProt Q92698); experiment: inhibitors of human RAD54 branch migration, confirmation, biochemical, fluorescence, cherry-picked samples, dose series (AID 651657); format: functional
DNA repair and recombination protein RAD54-like, sequence (Q92698 whole entry): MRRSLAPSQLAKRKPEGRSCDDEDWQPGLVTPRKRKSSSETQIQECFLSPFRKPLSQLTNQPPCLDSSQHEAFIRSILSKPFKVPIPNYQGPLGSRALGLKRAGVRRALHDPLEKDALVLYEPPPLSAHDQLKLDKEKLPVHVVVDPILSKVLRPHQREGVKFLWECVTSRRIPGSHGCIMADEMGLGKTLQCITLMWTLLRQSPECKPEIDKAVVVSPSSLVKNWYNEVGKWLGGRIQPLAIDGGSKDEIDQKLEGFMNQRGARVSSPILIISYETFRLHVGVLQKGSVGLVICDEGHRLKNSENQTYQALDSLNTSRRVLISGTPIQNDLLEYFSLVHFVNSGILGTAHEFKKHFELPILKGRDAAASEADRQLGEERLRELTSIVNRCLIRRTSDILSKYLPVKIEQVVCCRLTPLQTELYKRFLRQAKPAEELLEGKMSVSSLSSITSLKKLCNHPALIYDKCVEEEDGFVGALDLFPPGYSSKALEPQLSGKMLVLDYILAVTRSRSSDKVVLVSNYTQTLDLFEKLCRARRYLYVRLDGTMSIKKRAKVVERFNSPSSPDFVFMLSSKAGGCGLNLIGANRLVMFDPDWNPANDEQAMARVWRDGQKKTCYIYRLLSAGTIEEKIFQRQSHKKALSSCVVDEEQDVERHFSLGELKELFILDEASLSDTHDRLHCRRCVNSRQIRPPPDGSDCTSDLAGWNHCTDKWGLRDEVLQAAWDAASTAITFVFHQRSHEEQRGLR

[25] = biological target: SWI/SNF-related matrix-associated actin-dependent regulator of chromatin subfamily A member 2 (Homo sapiens, UniProt P51531); experiment: Luminescence-based cell-based high throughput dose response assay to identify activators of the function of SWI/SNF related, matrix associated, actin dependent regulator of chromatin, subfamily a, member 2 (SMARCA2, BRM).; format: functional
SWI/SNF-related matrix-associated actin-dependent regulator of chromatin subfamily A member 2, sequence (P51531 whole entry): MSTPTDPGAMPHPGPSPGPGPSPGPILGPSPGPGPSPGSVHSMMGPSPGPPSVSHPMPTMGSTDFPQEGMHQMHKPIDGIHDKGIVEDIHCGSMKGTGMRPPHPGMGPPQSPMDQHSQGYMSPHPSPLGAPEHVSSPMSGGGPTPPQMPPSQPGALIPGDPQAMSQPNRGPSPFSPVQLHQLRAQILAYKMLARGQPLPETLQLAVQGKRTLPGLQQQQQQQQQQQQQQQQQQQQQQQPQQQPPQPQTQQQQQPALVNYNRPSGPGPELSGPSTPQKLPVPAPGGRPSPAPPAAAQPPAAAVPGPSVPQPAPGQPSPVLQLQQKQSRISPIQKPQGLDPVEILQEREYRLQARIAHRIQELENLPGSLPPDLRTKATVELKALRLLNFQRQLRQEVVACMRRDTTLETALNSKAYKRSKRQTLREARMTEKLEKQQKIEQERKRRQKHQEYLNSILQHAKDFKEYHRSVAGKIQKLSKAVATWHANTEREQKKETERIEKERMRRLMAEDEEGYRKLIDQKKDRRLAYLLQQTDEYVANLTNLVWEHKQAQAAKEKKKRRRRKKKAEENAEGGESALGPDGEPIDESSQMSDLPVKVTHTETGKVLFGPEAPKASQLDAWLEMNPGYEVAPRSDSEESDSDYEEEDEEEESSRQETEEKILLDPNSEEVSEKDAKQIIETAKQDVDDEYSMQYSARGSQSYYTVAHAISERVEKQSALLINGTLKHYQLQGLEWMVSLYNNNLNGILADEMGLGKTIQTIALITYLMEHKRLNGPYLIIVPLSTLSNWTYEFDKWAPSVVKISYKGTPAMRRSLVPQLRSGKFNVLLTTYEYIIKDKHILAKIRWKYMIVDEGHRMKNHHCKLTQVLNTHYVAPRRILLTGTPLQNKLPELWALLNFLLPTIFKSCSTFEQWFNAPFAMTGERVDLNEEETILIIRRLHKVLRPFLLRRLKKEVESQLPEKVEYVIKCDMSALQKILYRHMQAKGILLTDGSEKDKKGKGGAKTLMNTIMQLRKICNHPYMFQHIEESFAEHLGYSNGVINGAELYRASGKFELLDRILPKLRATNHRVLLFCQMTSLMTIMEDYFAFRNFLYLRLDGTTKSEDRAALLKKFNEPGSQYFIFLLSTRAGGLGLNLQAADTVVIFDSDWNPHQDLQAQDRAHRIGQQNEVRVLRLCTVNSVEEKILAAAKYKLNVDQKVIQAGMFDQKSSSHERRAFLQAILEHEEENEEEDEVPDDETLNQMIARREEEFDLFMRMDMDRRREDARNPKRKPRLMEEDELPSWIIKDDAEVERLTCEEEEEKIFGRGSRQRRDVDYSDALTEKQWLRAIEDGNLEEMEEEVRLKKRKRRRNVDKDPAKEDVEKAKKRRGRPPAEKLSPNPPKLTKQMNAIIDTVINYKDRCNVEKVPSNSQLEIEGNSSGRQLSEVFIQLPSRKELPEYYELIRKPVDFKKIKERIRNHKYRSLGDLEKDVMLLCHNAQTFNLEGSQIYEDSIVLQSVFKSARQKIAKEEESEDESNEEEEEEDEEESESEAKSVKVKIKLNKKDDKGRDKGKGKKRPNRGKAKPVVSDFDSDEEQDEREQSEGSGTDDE

[26] = Counterscreen for activators of the function of SWI/SNF related, matrix associated, actin dependent regulator of chromatin, subfamily a, member 2 (SMARCA2, BRM): Luminescence-based cell-based high throughput dose response assay to identify non-selective compounds using the VP16 reporter assay.; format: functional
[27] = NIH-3T3 fibroblast cytotoxicity, dose response, cytotoxicity control, cell-based, fluorescence, Alamar Blue, secondary assay (AID 2327); format: functional;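 also: NIH-3T3 mouse fibroblasts cultured with fluconazole at 8 µg/mL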
[28] = biological target: T2, Heat shock factor protein 1 (Mus musculus, UniProt P38532); experiment: inhibition of MG132-induced HSE-luciferase signal, confirmation, cell-based, NIH3T3, luminescence, dose retest (AID 2382); format: functional;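 also: NIH3T3 fibroblasts with HSF1-driven luciferase reporter stressed by proteasome inhibitor MG132; luminescence from HSF1-driven luciferase expression after 8 hours of MG132 stress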
T2 sequence (P38532 whole entry): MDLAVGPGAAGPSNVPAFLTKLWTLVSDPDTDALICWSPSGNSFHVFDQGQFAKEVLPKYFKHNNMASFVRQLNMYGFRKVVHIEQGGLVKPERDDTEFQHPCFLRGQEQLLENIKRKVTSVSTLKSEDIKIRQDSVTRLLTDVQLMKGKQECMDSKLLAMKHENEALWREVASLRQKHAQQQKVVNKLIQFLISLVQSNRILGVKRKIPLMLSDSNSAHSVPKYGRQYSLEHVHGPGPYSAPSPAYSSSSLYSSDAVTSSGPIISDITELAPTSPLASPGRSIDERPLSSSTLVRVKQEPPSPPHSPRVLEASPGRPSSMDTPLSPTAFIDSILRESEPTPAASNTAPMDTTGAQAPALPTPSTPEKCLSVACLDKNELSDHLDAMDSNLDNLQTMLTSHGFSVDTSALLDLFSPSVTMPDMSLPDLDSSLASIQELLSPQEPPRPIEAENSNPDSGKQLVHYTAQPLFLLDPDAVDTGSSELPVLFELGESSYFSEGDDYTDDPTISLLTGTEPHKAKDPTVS

[29] = C. albicans growth with fluconazole, confirmation, fluorescence, retest (AID 2467); format: functional, cell-based

SMILES: O=C1Nc2cc(C(=O)N3CCc4ccccc4C3)ccc2S/C1=C\c1ccccc1
AC50 [1]: 3.43 µM (active) | AC50 [2]: 55.5 µM (active)

SMILES: CCCCC(=O)NC(c1ccc(C(C)C)cc1)c1ccc2cccnc2c1O (stereo unspecified)
EC50 [3]: 0.534 µM (active) | EC50 [4]: 2.94 µM (active) | EC50 [5]: 2.67 µM (active) | EC50 [6]: > 350 µM (not active) | EC50 [7]: 1.5 µM (inconclusive) | EC50 [8]: 4.19 µM (active) | AC50 [9]: 5.41 µM (active) | IC50 [10]: 20.2 µM (inactive) | IC50 [11]: 3.17 µM (active) | EC50 [12]: 2.13 µM (active) | IC50 [13]: 6.67 µM (active) | AC50 [14]: 0.57 µM (active) | AC50 [15]: > 70 µM (inactive) | AC50 [16]: 0.331 µM (active)

SMILES: CCOC(=O)c1c(-n2cccc2)sc2c1CCCC2=O
AC50 [17]: 12.3 µM (active) | AC50 [18]: 4.1 µM (active)

AC50 [19]: 9.8 µM (active) | IC50 [20]: > 79 µM (inactive) | IC50 [21]: 43.5 µM (inactive)
SMILES: COc1ccc(-c2c[nH]nc2-c2ccc(OC)cc2O)cc1

SMILES: COc1cc2nc(N(C)C)nc(N)c2cc1OC
EC50 [22]: 6.08 µM (active) | EC50 [23]: > 60 µM (not active) | AC50 [24]: 12.5 µM (active) | EC50 [25]: 37 µM (inactive) | EC50 [26]: > 91.2 µM (inactive)

SMILES: COc1ccc(OC2C(=O)N(Cc3ccc4c(c3)OCO4)C2c2sccc2C)cc1 (stereo unspecified)
EC50 [27]: > 160 µM (inactive) | EC50 [28]: > 195 µM (not active) | EC50 [29]: > 38 µM (not active) | AC50 [1]: 29.8 µM (active) | AC50 [2]: 40.4 µM (active)
